Like-named read-outs stand apart in the source and are kept apart here.
Target: 11β-HSD1 (Homo sapiens (Human), UniProt P28845)
Test: Biological Test Example 1: inhibition of a microsomal preparation of 11β-HSD1 (SPA)
Type: biochemical
Procedure: All reactions were carried out at rt in 96 well clear flexible PET Microbeta plates (PerkinElmer). […] After a 10 minute pre-incubation, 50 μL of enzyme solution containing microsomes isolated from CHO cells overexpressing human 11-HSD1 (10-20 μg/ml of total protein) was added, and the plates were incubated for 90 minutes at rt. The reaction was stopped by adding 50 μl of the SPA beads suspension containing 10 μM […], 5 mg/ml protein A coated YSi SPA beads (GE Healthcare) and 3.3 μg/ml of anti-cortisol antibody (East Coast Biologics) in Superblock buffer (Bio-Rad). The plates were shaken for 120 minutes at rt, and the SPA signal corresponding to [^3H]cortisol was measured on a Microbeta plate reader.

[1] = Biological Test Example 1, microsomes from CHO cells overexpressing human 11β-HSD1, read-out: IC50 Range
[2] = Biological Test Example 1, read-out: IC50
[3] = read-out: Average % inhibition at 100 nM, Biological Test Example 1, 100 nM compound
[4] = Biological Test Example 1, 100 nM compound
[5] = read-out: Average % inhibition at 100 nM

Chain of 11β-HSD1 (P28845 whole entry): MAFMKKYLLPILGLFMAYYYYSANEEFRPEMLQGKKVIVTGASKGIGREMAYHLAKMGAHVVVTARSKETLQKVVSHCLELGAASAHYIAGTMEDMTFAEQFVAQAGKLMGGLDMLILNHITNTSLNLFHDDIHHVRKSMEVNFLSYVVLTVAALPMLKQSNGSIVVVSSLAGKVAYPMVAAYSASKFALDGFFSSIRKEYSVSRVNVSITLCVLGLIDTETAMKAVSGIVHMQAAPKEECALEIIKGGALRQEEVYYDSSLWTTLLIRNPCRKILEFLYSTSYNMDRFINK

IC50 [1] | IC50 [2] | Average % inhibition at 100 nM [4] | Compound | other results
< 100 nM | 1.92 nM | – | Cc1nc2cccc(Cl)c2n1[C@@H]1CCN(C(=O)OC2C3CC4CC2CC(C(N)=O)(C4)C3)C1 (stereo partly drawn) [EXAMPLE 59, (R)-1-carbamoyl-4-adamantyl 3-(7-chloro-2-methyl-1H-benzo[d]imidazol-1-yl)pyrrolidine-1-carboxylate] | inhibition at 0.1 µM [3]: 96.7%
< 100 nM | 1.95 nM | – | Cn1ccc(-c2csc(C3CCN(C(=O)O[C@H]4C5CC6CC4C[C@](C(N)=O)(C6)C5)C3)n2)cc1=O (stereo partly drawn) [EXAMPLE 56, trans-1-carbamoyl-4-adamantyl 3-(4-(1-methyl-2-oxo-1,2-dihydropyridin-4-yl)thiazol-2-yl)pyrrolidine-1-carboxylate] | inhibition at 0.1 µM [3]: 96.7%
> 100 nM | > 100 nM | 10.7% | Cc1ccnc(C2CCN(C(=O)OC3C4CC5CC3CC(C(N)=O)(C5)C4)C2)n1 (single isomer, unassigned) [EXAMPLE 38 Isomer 2, 1-carbamoyl-4-adamantyl 3-(4-methylpyrimidin-2-yl)pyrrolidine-1-carboxylate] | –
< 100 nM | 6.88 nM | 90.8% | Cc1cc(C2CCN(C(=O)OC3C4CC5CC3CC(C(N)=O)(C5)C4)C2)nn1C (single isomer, unassigned) [EXAMPLE 40 Isomer 1, 1-carbamoyl-4-adamantyl 3-(1,5-dimethyl-1H-pyrazol-3-yl)pyrrolidine-1-carboxylate] | –
– | – | 76.6% | Cc1ccc(C2CCN(C(=O)OC3C4CC5CC3CC(C(N)=O)(C5)C4)C2)nn1 (single isomer, unassigned) [EXAMPLE 37 Isomer 1, trans-1-carbamoyl-4-adamantyl 3-(6-methylpyridazin-3-yl)pyrrolidine-1-carboxylate] | –
– | – | 13.3% | Cc1ccc(C2CCN(C(=O)OC3C4CC5CC3CC(C(N)=O)(C5)C4)C2)nn1 (single isomer, unassigned) [EXAMPLE 37 Isomer 2] | –
< 100 nM | 33.3 nM | 69.4% | Cn1cc(-c2cnc(C3CCN(C(=O)OC4C5CC6CC4CC(C(N)=O)(C6)C5)C3)nc2)ccc1=O (single isomer, unassigned) [EXAMPLE 58 Isomer 1, trans-1-carbamoyl-4-adamantyl 3-(5-(1-methyl-6-oxo-1,6-dihydropyridin-3-yl)pyrimidin-2-yl)pyrrolidine-1-carboxylate] | –
< 100 nM | 0.68 nM | – | NC(=O)[C@]12CC3CC(C1)[C@@H](OC(=O)N1CC[C@H](Oc4ncc(F)cc4F)C1)C(C3)C2 [EXAMPLE 2, (S)-(trans-(1-carbamoyl-4-adamantyl)) 3-(3,5-difluoropyridin-2-yloxy)pyrrolidine-1-carboxylate] | inhibition at 0.1 µM [3]: 96.2%
– | – | 21.8% | Cc1csc(C2CCN(C(=O)OC3C4CC5CC3CC(C(N)=O)(C5)C4)C2)n1 (single isomer, unassigned) [EXAMPLE 42 Isomer 2, cis-1-carbamoyl-4-adamantyl 3-(4-methylthiazol-2-yl)pyrrolidine-1-carboxylate] | –
– | – | 69.0% | NC(=O)C12CC3CC(C1)C(OC(=O)N1CCC(c4ncc(F)cn4)C1)C(C3)C2 (single isomer, unassigned) [EXAMPLE 41 Isomer 2, 1-carbamoyl-4-adamantyl 3-(5-fluoropyrimidin-2-yl)pyrrolidine-1-carboxylate] | –
< 100 nM | 1.11 nM | – | Cc1nc2cccc(Cl)c2n1[C@H]1CCN(C(=O)OC2C3CC4CC2CC(C(N)=O)(C4)C3)C1 (stereo partly drawn) [EXAMPLE 76, (S)-1-carbamoyl-4-adamantyl 3-(7-chloro-2-methyl-1H-benzo[d]imidazol-1-yl)pyrrolidine-1-carboxylate] | inhibition at 0.1 µM [3]: 93.6%
< 100 nM | 1.91 nM | 84.2% | NC(=O)[C@]12CC3CC(C1)[C@@H](OC(=O)N1CCC(c4ncc(Cl)cn4)C1)C(C3)C2 (single isomer, unassigned) [EXAMPLE 26 Isomer 1b, (1-carbamoyl-4-adamantyl) 3-(5-chloropyrimidin-2-yl)pyrrolidine-1-carboxylate] | –
– | – | – | Cn1ccc(-c2cnc(C3CCN(C(=O)OC4C5CC6CC4CC(C(N)=O)(C6)C5)C3)nc2)cc1=O (single isomer, unassigned; isomer 1) [EXAMPLE 57 Isomer 1, trans-1-carbamoyl-4-adamantyl 3-(5-(1-methyl-2-oxo-1,2-dihydropyridin-4-yl)pyrimidin-2-yl)pyrrolidine-1-carboxylate] | Average % inhibition at 100 nM: 65.0%; IC50 (read-out: IC50): 50.5 nM; IC50 (read-out: IC50 Range): < 100 nM
< 100 nM | 5.03 nM | – | Cc1nc2cc(C#N)ccc2n1[C@H]1CCN(C(=O)OC2C3CC4CC2CC(C(N)=O)(C4)C3)C1 (stereo partly drawn) [EXAMPLE 75, (S)-1-carbamoyl-4-adamantyl 3-(5-cyano-2-methyl-1H-benzo[d]imidazol-1-yl)pyrrolidine-1-carboxylate] | inhibition at 0.1 µM [3]: 39.1%
< 100 nM | 2.63 nM | – | O=C(O[C@H]1C2CC3CC1C[C@](O)(C3)C2)N1CC[C@@H](Oc2ccc(C(F)(F)F)cn2)C1 [EXAMPLE 4, (R)-(trans-(1-hydroxy-4-adamantyl)) 3-(5-(trifluoromethyl)pyridin-2-yloxy)pyrrolidine-1-carboxylate] | inhibition at 0.1 µM [3]: 90.3%
< 100 nM | 3.07 nM | – | Cn1c(=O)n([C@@H]2CCN(C(=O)O[C@H]3C4CC5CC3C[C@](C(N)=O)(C5)C4)C2)c2ccccc21 [EXAMPLE 62, (R)-trans-1-carbamoyl-4-adamantyl 3-(3-methyl-2-oxo-2,3-dihydro-1H-benzo[d]imidazol-1-yl)pyrrolidine-1-carboxylate] | inhibition at 0.1 µM [3]: 92.7%
< 100 nM | 2.99 nM | 59.7% | Cc1cnc(C2CCN(C(=O)OC3C4CC5CC3CC(C(N)=O)(C5)C4)C2)nc1 (single isomer, unassigned) [EXAMPLE 39 Isomer 1, 1-carbamoyl-4-adamantyl 3-(5-methylpyrimidin-2-yl)pyrrolidine-1-carboxylate] | –
– | – | 94.5% | NC(=O)C12CC3CC(C1)C(OC(=O)N1CCC(c4nccc(C(F)(F)F)n4)C1)C(C3)C2 (single isomer, unassigned) [EXAMPLE 48 Isomer 1, trans-1-carbamoyl-4-adamantyl 3-(4-(trifluoromethyl)pyrimidin-2-yl)pyrrolidine-1-carboxylate] | –
< 100 nM | 1.15 nM | 102.6% | NC(=O)[C@]12CC3CC(C1)[C@@H](OC(=O)N1CCC(c4ncc(Cl)cn4)C1)C(C3)C2 (single isomer, unassigned) [EXAMPLE 26 Isomer 1a, (1-carbamoyl-4-adamantyl) 3-(5-chloropyrimidin-2-yl)pyrrolidine-1-carboxylate] | –
– | – | – | Cc1nc2cc(F)ccc2n1C1CCN(C(=O)OC2C3CC4CC2CC(C(N)=O)(C4)C3)C1 (single isomer, unassigned; isomer 2) [EXAMPLE 74 Isomer 2] | Average % inhibition at 100 nM: 83.2%; IC50 (read-out: IC50): 16.6 nM; IC50 (read-out: IC50 Range): < 100 nM
> 100 nM | > 100 nM | 1.5% | Cc1ncc(C2CCN(C(=O)OC3C4CC5CC3CC(C(N)=O)(C5)C4)C2)cn1 (single isomer, unassigned) [EXAMPLE 36 Isomer 2, 1-carbamoyl-4-adamantyl 3-(2-methylpyrimidin-5-yl)pyrrolidine-1-carboxylate] | –
> 100 nM | > 100 nM | 3.8% | O=C(OC1C2CC3CC1CC(C(=O)O)(C3)C2)N1CCC(c2ncc(Cl)cn2)C1 (single isomer, unassigned) [EXAMPLE 46 Isomer 2, cis-4-((3-(5-chloropyrimidin-2-yl)pyrrolidine-1-carbonyl)oxy)adamantane-1-carboxylic acid] | –
– | – | 92.3% | NC(=O)C12CC3CC(C1)C(OC(=O)N1CCC(c4ncc(F)cn4)C1)C(C3)C2 (single isomer, unassigned) [EXAMPLE 41 Isomer 1, 1-carbamoyl-4-adamantyl 3-(5-fluoropyrimidin-2-yl)pyrrolidine-1-carboxylate] | –
< 100 nM | 1 nM | – | Cn1c(=O)n([C@@H]2CCN(C(=O)O[C@H]3C4CC5CC3C[C@](C(N)=O)(C5)C4)C2)c2ncc(Cl)cc21 [EXAMPLE 29, (R) (trans-1-carbamoyl-4-adamantyl) 3-(6-chloro-1-methyl-2-oxo-1H-imidazo[4,5-b]pyridin-3(2H)-yl)pyrrolidine-1-carboxylate] | inhibition at 0.1 µM [3]: 99.2%

Compound | IC50 [1] | IC50 [2] | Average % inhibition at 100 nM [4] | other results
NC(=O)[C@]12CC3CC(C1)[C@@H](OC(=O)N1CCCC1c1ccccn1)C(C3)C2 (stereo partly drawn) [EXAMPLE 19, trans-1-carbamoyl-4-adamantyl 2-(pyridin-2-yl)pyrrolidine-1-carboxylate] | < 100 nM | 6.74 nM | – | inhibition at 0.1 µM [5]: 93.2%
NC(=O)[C@]12CC3CC(C1)[C@@H](OC(=O)N1CC[C@@H](Oc4ncc(F)cc4F)C1)C(C3)C2 (relative stereo) [EXAMPLE 1, (R)-(trans-(1-carbamoyl-4-adamantyl)) 3-(3,5-difluoropyridin-2-yloxy)pyrrolidine-1-carboxylate] | < 100 nM | 1.54 nM | 95.53% | –
Cn1c(=O)n([C@H]2CCN(C(=O)O[C@H]3C4CC5CC3C[C@](C(N)=O)(C5)C4)C2)c2ccc(C#N)cc21 [EXAMPLE 70, (S)-trans-1-carbamoyl-4-adamantyl 3-(5-cyano-3-methyl-2-oxo-2,3-dihydro-1H-benzo[d]imidazol-1-yl)pyrrolidine-1-carboxylate] | < 100 nM | – | – | inhibition at 0.1 µM [5]: 91.3%
